From patent US20080039422A1, “Vitamin B12-Containing Compositions and Methods of Use” (Transition Therapeutics Inc., priority 2004, published 2008)

Columns and labels:
[1] = Stability of CN-Cbl solutions stored at room temperature (3 days, 2 weeks); type: physicochemical
Procedure: To determine the stability of the various solutions, the clarified stocks were aliquoted into fresh tubes and stored at room temperature, protected from light, for up to two weeks. Prior to measuring the concentrations of CN-Cbl on subsequent occasions, the tubes were centrifuged for ten minutes at rcf 16,100. The concentration of CN-Cbl was measured as described above by spectrophotometry.
In the experiments described above, the concentration of CN-Cbl was measured within an hour or two after the components of the solutions were initially combined. To determine the stability of the preparations, the concentrations of CN-Cbl were measured in individual excipients after three days and the concentrations of CN-Cbl in combined excipients were measured after two weeks. Tables 3A-3B are tables showing the concentrations of CN-Cbl (mg/ml) in various solutions after three days incubation at room temperature. Solutions containing 0-60% propylene glycol (Table 3A) and solutions containing 0-40% ethanol (Table 3B) were challenged with 50, 75, 100, and 125 mg/ml CN-Cbl. Table 4 is a table showing the concentrations of CN-Cbl in excipients containing ethanol and propylene glycol after two weeks incubation at room temperature. The solutions were challenged with either 50 or 75 mg/ml CN-Cbl and the excipients contained ethanol (10, 15, or 20%) and propylene glycol (20, 30, or 40%). […] Regardless of the diminution in concentration over time, however, it was hypothesized that the initial concentrations of CN-Cbl could be restored with an additional application of energy (e.g., mixing, heating, or both mixing and heating; see below).

[2] = Effects of temperature of heating solution on long-term stability; type: physicochemical
Procedure: To study the effect of temperature, in some experiments, the solutions were heated to only 37° C. for 15 minutes (unless otherwise noted, the solutions were prepared as described above: by heating them to 60° C. for two hours, with additional mixing by vortexing carried out for 5-10 seconds every 5-10 minutes).
The effect of heating the solutions to different temperatures on long-term stability was tested. Solutions challenged with 50 or 75 mg/ml CN-Cbl containing 20% ethanol and 20-40% propylene glycol that were prepared at 60° C. and 37° C. were compared. The concentrations of CN-Cbl in solutions prepared at 60° C. were measured after three days, and the concentrations of CN-Cbl in solutions prepared at 37° C. were measured after two weeks. No significant difference was found in the concentrations of CN-Cbl in these solutions when the challenge amount was 50 mg/ml and only a slight difference when the challenge amount was 75 mg/ml. Solutions challenged with either 50 or 75 mg/ml CN-Cbl and containing ethanol and/or propylene glycol were heated to 37° C. (in which case, the concentration of CN-Cbl was measured after two weeks incubation at room temperature) or 60° C. (in which case, the concentration of CN-Cbl was measured after three days incubation at room temperature). Additional information regarding stability was obtained in the experiments described below.

concentration of CN-Cbl ([1]; After 3 days at Room Temperature, challenge 125 mg/ml, PG 20% v/v): 23100 µg/mL
concentration of CN-Cbl ([1]; After 3 days at Room Temperature, challenge 125 mg/ml, PG 30% v/v): 28300 µg/mL
concentration of CN-Cbl ([1]; After 3 days at Room Temperature, challenge 125 mg/ml, PG 40% v/v): 38600 µg/mL
concentration of CN-Cbl ([1]; After 3 days at Room Temperature, challenge 125 mg/ml, PG 50% v/v): 46200 µg/mL
concentration of CN-Cbl ([1]; After 3 days at Room Temperature, challenge 125 mg/ml, PG 60% v/v): 78700 µg/mL
concentration of CN-Cbl ([1]; after three days at room temperature, challenge 50 mg/ml, EtOH 0% v/v): 13600 µg/mL
concentration of CN-Cbl ([1]; after three days at room temperature, challenge 50 mg/ml, EtOH 10% v/v): 20500 µg/mL
concentration of CN-Cbl ([1]; after three days at room temperature, challenge 50 mg/ml, EtOH 20% v/v): 26900 µg/mL
concentration of CN-Cbl ([1]; after three days at room temperature, challenge 50 mg/ml, EtOH 30% v/v): 40000 µg/mL
concentration of CN-Cbl ([1]; after three days at room temperature, challenge 50 mg/ml, EtOH 40% v/v): 47600 µg/mL
concentration of CN-Cbl ([1]; after three days at room temperature, challenge 75 mg/ml, EtOH 0% v/v): 15000 µg/mL
concentration of CN-Cbl ([1]; after three days at room temperature, challenge 75 mg/ml, EtOH 10% v/v): 23000 µg/mL
concentration of CN-Cbl ([1]; after three days at room temperature, challenge 75 mg/ml, EtOH 20% v/v): 26100 µg/mL
concentration of CN-Cbl ([1]; after three days at room temperature, challenge 75 mg/ml, EtOH 30% v/v): 43000 µg/mL
concentration of CN-Cbl ([1]; after three days at room temperature, challenge 75 mg/ml, EtOH 40% v/v): 53400 µg/mL
concentration of CN-Cbl ([1]; after three days at room temperature, challenge 100 mg/ml, EtOH 0% v/v): 14900 µg/mL
concentration of CN-Cbl ([1]; after three days at room temperature, challenge 100 mg/ml, EtOH 10% v/v): 24000 µg/mL
concentration of CN-Cbl ([1]; after three days at room temperature, challenge 100 mg/ml, EtOH 20% v/v): 27800 µg/mL
concentration of CN-Cbl ([1]; after three days at room temperature, challenge 100 mg/ml, EtOH 30% v/v): 34500 µg/mL
concentration of CN-Cbl ([1]; after three days at room temperature, challenge 100 mg/ml, EtOH 40% v/v): 46100 µg/mL
concentration of CN-Cbl ([1]; after three days at room temperature, challenge 125 mg/ml, EtOH 0% v/v): 14500 µg/mL
concentration of CN-Cbl ([1]; after three days at room temperature, challenge 125 mg/ml, EtOH 10% v/v): 21500 µg/mL
concentration of CN-Cbl ([1]; after three days at room temperature, challenge 125 mg/ml, EtOH 20% v/v): 28400 µg/mL
concentration of CN-Cbl ([1]; after three days at room temperature, challenge 125 mg/ml, EtOH 30% v/v): 37900 µg/mL
concentration of CN-Cbl ([1]; after three days at room temperature, challenge 125 mg/ml, EtOH 40% v/v): 50900 µg/mL
Conc of CN-Cbl ([2]; heated to 37 degrees, After 2 weeks at Room Temperature, challenge 50 mg/mL, ethanol 20%, PG 20%): 47080 µg/mL
Conc of CN-Cbl ([2]; heated to 37 degrees, After 2 weeks at Room Temperature, challenge 50 mg/mL, ethanol 20%, PG 30%): 49780 µg/mL
Conc of CN-Cbl ([2]; heated to 37 degrees, After 2 weeks at Room Temperature, challenge 50 mg/mL, ethanol 20%, PG 40%): 49870 µg/mL
Conc of CN-Cbl ([2]; heated to 37 degrees, After 2 weeks at Room Temperature, challenge 75 mg/mL, ethanol 20%, PG 20%): 38390 µg/mL
Conc of CN-Cbl ([2]; heated to 37 degrees, After 2 weeks at Room Temperature, challenge 75 mg/mL, ethanol 20%, PG 30%): 59620 µg/mL
Conc of CN-Cbl ([2]; heated to 37 degrees, After 2 weeks at Room Temperature, challenge 75 mg/mL, ethanol 20%, PG 40%): 75820 µg/mL
Conc of CN-Cbl ([2]; heated to 60 degrees, After 3 days at Room Temperature, challenge 50 mg/mL, ethanol 0%, PG 0%): 12850 µg/mL
Conc of CN-Cbl ([2]; heated to 60 degrees, After 3 days at Room Temperature, challenge 50 mg/mL, ethanol 20%, PG 0%): 24410 µg/mL
Conc of CN-Cbl ([2]; heated to 60 degrees, After 3 days at Room Temperature, challenge 50 mg/mL, ethanol 20%, PG 10%): 32320 µg/mL
Conc of CN-Cbl ([2]; heated to 60 degrees, After 3 days at Room Temperature, challenge 50 mg/mL, ethanol 20%, PG 20%): 49870 µg/mL
Conc of CN-Cbl ([2]; heated to 60 degrees, After 3 days at Room Temperature, challenge 50 mg/mL, ethanol 20%, PG 30%): 48330 µg/mL
Conc of CN-Cbl ([2]; heated to 60 degrees, After 3 days at Room Temperature, challenge 50 mg/mL, ethanol 20%, PG 40%): 50360 µg/mL
Conc of CN-Cbl ([2]; heated to 60 degrees, After 3 days at Room Temperature, challenge 75 mg/mL, ethanol 0%, PG 0%): 14010 µg/mL
Conc of CN-Cbl ([2]; heated to 60 degrees, After 3 days at Room Temperature, challenge 75 mg/mL, ethanol 20%, PG 0%): 24410 µg/mL
Conc of CN-Cbl ([2]; heated to 60 degrees, After 3 days at Room Temperature, challenge 75 mg/mL, ethanol 20%, PG 10%): 30100 µg/mL
Conc of CN-Cbl ([2]; heated to 60 degrees, After 3 days at Room Temperature, challenge 75 mg/mL, ethanol 20%, PG 20%): 60780 µg/mL
Conc of CN-Cbl ([2]; heated to 60 degrees, After 3 days at Room Temperature, challenge 75 mg/mL, ethanol 20%, PG 30%): 76600 µg/mL
Conc of CN-Cbl ([2]; heated to 60 degrees, After 3 days at Room Temperature, challenge 75 mg/mL, ethanol 20%, PG 40%): 74280 µg/mL
Substance: cyanocobalamin [CN-Cbl]
